Data taken from ChEMBL document CHEMBL1201862, “PubChem BioAssay data set” (2004).
Where “and” joins values, the source holds several entries; their conditions need not be identical. Equal entries are not always repeated.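 Exposure lasted 48 hours, with cells grown in 96-well plates and compounds tested at five concentrations. GI50 marks 50% less growth.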 Calls of active or inactive are those of the source. No stated cut-off is given here; in the data, active = GI50 up to about 1.1 µM and inactive = higher.

Experiments:
Test in all cases: NCI tumour cell line growth inhibition, 48 h
SK-MEL-28 = tested on: SK-MEL-28
HT-29 = tested on: HT-29
SF-295 = tested on: SF-295
KM12 = tested on: KM12
NCI-H23 = tested on: NCI-H23
SW-620 = tested on: SW-620
UACC-62 = tested on: UACC-62
HCT-116 = tested on: HCT-116
DMS-273 = tested on: DMS-273
NCI-H522 = tested on: NCI-H522
TK-10 = tested on: TK-10
EKVX = tested on: EKVX
A498 = tested on: A498
IGROV-1 = tested on: IGROV-1
OVCAR-4 = tested on: OVCAR-4
CAKI-1 = tested on: CAKI-1
T47D = tested on: T47D
DU-145 = tested on: DU-145
PC-3 = tested on: PC-3
BT-549 = tested on: BT-549

Row | Compound | GI50 (SK-MEL-28) | GI50 (HT-29) | GI50 (SF-295) | GI50 (KM12) | GI50 (NCI-H23) | GI50 (SW-620) | GI50 (UACC-62) | GI50 (HCT-116) | GI50 (DMS-273) | GI50 (NCI-H522) | GI50 (TK-10) | GI50 (EKVX) | GI50 (A498) | GI50 (IGROV-1) | GI50 (OVCAR-4) | GI50 (CAKI-1) | GI50 (T47D) | GI50 (DU-145) | GI50 (PC-3) | GI50 (BT-549)
1 | O=[N+]([O-])c1ccc2occ3c2c1CCC3 | > 100 µM (inactive) | > 100 µM (inactive) | > 100 µM (inactive) | > 100 µM (inactive) | > 100 µM (inactive) | > 100 µM (inactive) | > 100 µM (inactive) | > 100 µM (inactive) | > 100 µM (inactive) | > 100 µM (inactive) | > 100 µM (inactive) | > 100 µM (inactive) | > 100 µM (inactive) | > 100 µM (inactive) | > 100 µM (inactive) |  |  |  |  | 
2 | O=C(Cc1nc2ccccc2s1)C(=O)Nc1ccccc1C(F)(F)F | > 100 µM (inactive) | > 100 µM (inactive) | > 100 µM (inactive) | > 100 µM (inactive) | > 100 µM (inactive) | > 100 µM (inactive) | > 100 µM (inactive) | > 100 µM (inactive) | > 100 µM (inactive) | > 100 µM (inactive) | > 100 µM (inactive) | > 100 µM (inactive) | > 100 µM (inactive) | > 100 µM (inactive) | > 100 µM (inactive) | > 100 µM (inactive) |  |  |  | 
3 | C1CCN(c2nc(=[N+]3CCCCC3)ss2)CC1 | 84.9 µM (inactive) | > 100 µM (inactive) | > 100 µM (inactive) | 9.18 µM (inactive) | 73.3 µM (inactive) | > 100 µM (inactive) | > 100 µM (inactive) | > 100 µM (inactive) | > 100 µM (inactive) | > 100 µM (inactive) | > 100 µM (inactive) | > 100 µM (inactive) | > 100 µM (inactive) | > 100 µM (inactive) | > 100 µM (inactive) | > 100 µM (inactive) |  |  |  | 
4 | CCCCCCCCOC(=O)c1cc([N+](=O)[O-])c(Sc2[nH]cnc3ncnc2-3)c([N+](=O)[O-])c1 | 19.1 µM (inactive) | 1.77 µM (inactive) | 3.12 µM (inactive) | 3.45 µM (inactive) | 2.45 µM (inactive) | 1.76 µM (inactive) | 2.9 µM (inactive) | 1.84 µM (inactive) | 0.425 µM (active) | 1.05 µM (active) | 1.85 µM (inactive) | 8.71 µM (inactive) | 17 µM (inactive) | 4.07 µM (inactive) | 3.49 µM (inactive) | 3.37 µM (inactive) | 0.465 µM (active) | 1.27 µM (inactive) | 3.21 µM (inactive) | 2.95 µM (inactive)
5 | CCOC(=N)CC(=O)Nc1ccccc1 | > 46.5 µM (inactive) | > 46.5 µM (inactive) | > 100 µM (inactive) | > 46.5 µM (inactive) | > 46.5 µM (inactive) | 36.9 µM (inactive) | > 100 µM (inactive) | > 46.5 µM (inactive) | > 46.5 µM (inactive) | > 100 µM (inactive) | > 46.5 µM (inactive) | > 100 µM (inactive) | > 46.5 µM (inactive) | > 46.5 µM (inactive) | 34.5 µM (inactive) | > 100 µM (inactive) |  |  |  | 
6 | Cc1ccccc1NC(=O)CC1C(=O)Nc2ccccc2[S+]1[O-] (stereo not given) | > 100 µM (inactive) | > 100 µM (inactive) | > 100 µM (inactive) |  | > 100 µM (inactive) | > 100 µM (inactive) | > 100 µM (inactive) | > 100 µM (inactive) | > 100 µM (inactive) | > 100 µM (inactive) | > 100 µM (inactive) | > 100 µM (inactive) | > 100 µM (inactive) | 88.1 µM (inactive) | 71.6 µM (inactive) | > 100 µM (inactive) |  |  |  | 
7 | COc1cc(/C=C/c2cccnc2)cc(OC)c1OC | > 100 µM (inactive) | > 100 µM (inactive) | > 100 µM (inactive) | > 100 µM (inactive) | > 100 µM (inactive) | > 100 µM (inactive) | 81.1 µM (inactive) | > 100 µM (inactive) | > 100 µM (inactive) | 53.5 µM (inactive) | 58.6 µM (inactive) | 66.1 µM (inactive) | > 100 µM (inactive) | > 100 µM (inactive) | > 100 µM (inactive) | > 100 µM (inactive) |  |  |  | 
8 | O=c1c2ccccc2c(=O)n2n1CC=CC2 | > 100 µM (inactive) | > 100 µM (inactive) | > 100 µM (inactive) | > 100 µM (inactive) | > 100 µM (inactive) | > 100 µM (inactive) | > 100 µM (inactive) | > 100 µM (inactive) | > 100 µM (inactive) | > 100 µM (inactive) | > 100 µM (inactive) | > 100 µM (inactive) | > 100 µM (inactive) | > 100 µM (inactive) | > 100 µM (inactive) | > 100 µM (inactive) |  |  |  | 
9 | Clc1cccc(C2SCc3nc4ccccc4n32)c1Cl (stereo not given) | 21.1 µM (inactive) | 13.6 µM (inactive) | 16.5 µM (inactive) |  | 17.8 µM (inactive) | 17.1 µM (inactive) | 19.7 µM (inactive) | 18.6 µM (inactive) | 15.9 µM (inactive) | 16.6 µM (inactive) | 15.6 µM (inactive) | 16.2 µM (inactive) | 15.2 µM (inactive) | 16.6 µM (inactive) | 13.9 µM (inactive) | 16.3 µM (inactive) |  |  |  | 
10 | Nc1nc2c3nc(Nc4ccccc4)sc3nc(=O)n2c2sc(Nc3ccccc3)nc12 | > 100 µM (inactive) | > 100 µM (inactive) | > 100 µM (inactive) |  | > 100 µM (inactive) | > 100 µM (inactive) | > 100 µM (inactive) | > 100 µM (inactive) | > 100 µM (inactive) | > 100 µM (inactive) |  | > 100 µM (inactive) | > 100 µM (inactive) | > 100 µM (inactive) | > 100 µM (inactive) |  |  |  |  | 
11 | CCOC(=O)C1C(=O)C(C(=O)OCC)C(c2ccccc2)N(C)C1c1ccccc1 (stereo not given) | > 100 µM (inactive) | > 100 µM (inactive) | > 100 µM (inactive) | > 100 µM (inactive) | > 100 µM (inactive) | > 100 µM (inactive) | 65.6 µM (inactive) | 58.2 µM (inactive) | > 100 µM (inactive) | 49.9 µM (inactive) | > 100 µM (inactive) | > 100 µM (inactive) | > 100 µM (inactive) | > 100 µM (inactive) | > 100 µM (inactive) | > 100 µM (inactive) |  |  |  | 
12 | NNC(=S)N/N=C(\CC1OC(=O)c2ccccc21)c1ccccc1O (stereo not given) | 57.1 µM (inactive) | 61.5 µM (inactive) | 20.3 µM (inactive) | 40.4 µM (inactive) | 49.9 µM (inactive) | 55.7 µM (inactive) | 35.5 µM (inactive) | 36.6 µM (inactive) | 50.9 µM (inactive) | 22.8 µM (inactive) | > 100 µM (inactive) | 78.7 µM (inactive) | 33.7 µM (inactive) | 38 µM (inactive) | 88.7 µM (inactive) | 71.8 µM (inactive) |  |  |  | 
13 | CC(=O)OC1C/C(C)=C/CCC(C)/C=C/C2(C)CCC(C(C)(C)O)C12 (stereo not given) | 72.1 µM (inactive) | 33.4 µM (inactive) | 80.7 µM (inactive) | 51.2 µM (inactive) | 42.5 µM (inactive) | 47.5 µM (inactive) | 80.4 µM (inactive) | 26.2 µM (inactive) | 44.2 µM (inactive) |  | > 100 µM (inactive) | 63.2 µM (inactive) | > 100 µM (inactive) | 36.8 µM (inactive) | 49.8 µM (inactive) | 59 µM (inactive) |  |  |  | 
14 | CC(NC(=O)c1ccccc1)C(=O)N(Cc1ccccc1)Cc1ccccc1 (stereo not given) | 25.7 µM (inactive) | 37.1 µM (inactive) | 27.4 µM (inactive) | 26.6 µM (inactive) | 24.5 µM (inactive) | 51.1 µM (inactive) | 16.4 µM (inactive) | 25.2 µM (inactive) | 21.3 µM (inactive) | 23.7 µM (inactive) | 60.1 µM (inactive) |  | 25.6 µM (inactive) | 34 µM (inactive) | 31.2 µM (inactive) | 34.9 µM (inactive) |  |  |  | 
15 | COc1c(-c2ccccc2)nc2ccc(Oc3ccccc3)nn12 | > 51.8 µM (inactive) | 37 µM (inactive) | > 62.8 µM (inactive) | > 54.2 µM (inactive) | > 49 µM (inactive) | > 75.7 µM (inactive) | > 69.7 µM (inactive) | 13.2 µM (inactive) | > 57.1 µM (inactive) | > 100 µM (inactive) | > 100 µM (inactive) | > 100 µM (inactive) | > 41.4 µM (inactive) | > 93.8 µM (inactive) | > 36.3 µM (inactive) | > 68.4 µM (inactive) |  |  |  | 
16 | CCCCCCC(C)CCCCCCCCCCC(=O)O (stereo not given) | > 100 µM (inactive) | > 100 µM (inactive) | > 100 µM (inactive) | 64.7 µM (inactive) | > 100 µM (inactive) | > 100 µM (inactive) | > 100 µM (inactive) | 93.5 µM (inactive) | > 100 µM (inactive) | > 100 µM (inactive) | > 100 µM (inactive) | > 100 µM (inactive) | > 100 µM (inactive) | > 100 µM (inactive) | > 100 µM (inactive) | > 100 µM (inactive) |  |  |  | 
17 | COC(=O)[C@@H]1[C@H](O)[C@H](C)[C@H](O)[C@@](C)(O)/C=C\C=C(\C)C(=O)Nc2c(C)c(OC(C)=O)c3c(c2O)C(=O)C(C)=C2OCOC(=C23)/C(C)=C/[C@@](C)(O)[C@H](O)[C@@H](C)[C@H]1OC(C)=O | > 100 µM (inactive) | 38.5 µM (inactive) and 56.6 µM (inactive) | 88.5 µM (inactive) | 47.8 µM (inactive) | 27.4 µM (inactive) | 9.91 µM (inactive) and 59 µM (inactive) | 41.3 µM (inactive) | 29.2 µM (inactive) | > 100 µM (inactive) and 60 µM (inactive) | 47.2 µM (inactive) and 21.5 µM (inactive) | > 66.8 µM (inactive) | 78.2 µM (inactive) | > 66.8 µM (inactive) | > 100 µM (inactive) and 53 µM (inactive) | 55.6 µM (inactive) | 93.8 µM (inactive) |  | > 66.8 µM (inactive) | > 66.8 µM (inactive) | 
